Common to all, as to format: cell-based
Test [1] relates to FGF-1-induced differentiation of human subcutaneous preadipocytes. Kind of test: PLC inhibition of FGF-1-induced differentiation (G3PDH activity). The settings on record: inhibitor present during replication phase, differentiation phase or both, SFM including rosiglitazone. The protocol:
Human subcutaneous preadipocytes were isolated and subcultured in SCM in the presence and absence of FGF-1 with and without the PLC inhibitor U-73122 (Calbiochem). Cells were then allowed to reach confluence and differentiated using the standard chemically-modified SFM including rosiglitazone in the presence and absence of FGF1 with and without U-73122. Differentiation was assessed by G3PDH activity.

The subject of a further test is PLCγ2. Kind of test: PLCγ expression in human preadipocytes (indirect immunofluorescence, Western blot). The settings on record: grown to confluence in SCM + FGF-1 vs SCM alone; immunofluorescence and Western blot. The method, then: Expression of phospholipase Cγ2 (PLCγ2) protein is analyzed using Western blotting with immunofluorescent labeling procedures using a monoclonal anti-PLCγ2 antibody (Santa Cruz sc-5283).
Human preadipocytes were cultured in SCM+/−FGF-1 in 24-well plates. PLCγ expression was examined by indirect immuno-fluorescence. Non-immune primary and secondary antibody-only controls gave no staining.
(In general: Immunoblotting shows a protein as a band on a membrane.)

Test [2] deals with subcutaneous human preadipocytes gene expression. Put plainly: Microarray analysis of human preadipocyte gene expression (Affymetrix). The settings on record: confluent preadipocytes in SCM+FGF1 vs SCM; change of at least 50% (CV<5%). The method, then:
Total RNA was isolated from confluent subcutaneous human preadipocytes isolated and grown in either SCM (control) or SCM+FGF1. cRNA was prepared and hybridized to chips and subsequently analyzed using the Affymetrix® system. Each treatment was represented by duplicate samples and two independent experiments were performed. Gene expression was considered to be influenced by FGF-1 if expression was consistently (CV<5%) increased or reduced by at least 50%.

The test system of test [3] is human preadipocytes (omental and subcutaneous). Kind of test: Preadipocyte differentiation assessed by G3PDH activity. The settings on record: for adipogenic effect of FGF present during replication and/or differentiation (combination treatments): SCM +/- FGF during replication, SFM+rosiglitazone +/- FGF during differentiation, G3PDH activity; for preadipocyte differentiation / adipogenic effect (summary statements): human preadipocytes cultured with the growth factor; for differentiation of human preadipocytes after exposure to growth factor or MVEC-conditioned medium during subculture: subcultured up to 2 months with growth factor or EC-DMEM, differentiated in serum-free medium including 0.10M Rosiglitazone, G3PDH assay at day 21. The method, then:
Activity is assessed as previously described (Adams et al. J Clin Invest 100: 3149-53 1998) (Hutley et al in Primary Mesenchymal Cells 1st ed. Kluwer Academic 5: 173-87 2001).
For differentiation experiments, preadipocytes were isolated and subcultured in endothelial cell-conditioned medium (EC-DMEM) or in the presence of growth factor for up to 2 months and then allowed to reach confluence in 6-well plates. Cells were then differentiated in serum-free, chemically modified differentiation medium including 0.10M Rosiglitazone. Differentiation was assessed at day 21 using a standard G3PDH assay.
Human omental and subcutaneous preadipocytes were isolated and subcultured in SCM in the presence and absence of FGF-1 or FGF-2. Upon reaching confluence, the cells were differentiated in standard chemically modified SFM+rosiglitazone in the presence and absence of FGF-1 or FGF-2. Differentiation was assessed by G3PDH activity. […] Presence throughout both processes was additive.

The test system of test [4] is human preadipocytes (subcutaneous and omental). Kind of test: Preadipocyte proliferation assay (formazan/MTS colorimetric assay). Conditions: for proliferation of human preadipocytes in response to growth factor: SCM + growth factors at 1 ng/mL for 48 hrs, relative to SCM control, MTS assay. The method, then:
Subcutaneous and omental preadipocytes and human skin fibroblasts are plated separately at about 1×10^3 cells/well (subconfluent) in 96-well plates in DMEM/Ham's F12 1:1 plus 10% FCS (PA growth medium) and allowed to adhere at 37° C., 5% CO2 for 16-20 hrs. The medium is then changed to EC growth medium which is conditioned (see above) by exposure to either confluent subcutaneous or omental MVEC, human skin fibroblasts (HSF), or wells containing no cells (blank control) (each treatment is done in quadruplicate). In separate experiments subcutaneous and omental PAs are plated as above and subsequently treated with either S MVEC, O MVEC, human dermal EC(CADMEC) conditioned media, fresh EC growth medium, or blank control. After 48 hrs, preadipocyte cell number is assessed using a formazan colorimetric assay (Promega). The water soluble tetrazolium salt 3-(4,5-dimethylthiazol-2-yl)-5-(3-carboxymethoxyphenyl)-2-(4-sulfophenyl)-2H-tetrazolium (MTS) is added to each well at a concentration of 200 μg/mL. After incubation at 37° C. for 4 hrs, absorbance at 490 nm is measured using a Bio-Rad 3550 microplate reader. The validity of this assay is tested in two ways; 1) preadipocytes were plated at 250; 500; 1000; 2000; 4000 cells per well (in quadruplicate) and absorbance is measured at 490 nm; 2) after measurement at A490 nm the cells are subsequently stained with propidium iodide and direct cell counts carried out using fluorescence microscopy.
Preadipocytes were isolated and plated in 96-well plates at 500 cells/well (sub-confluent) in serum containing medium for 12-18 hrs to allow adherence. Cells were then incubated in SCM+growth factors at 1 ng/mL for 48 hrs and a MTS proliferation assay (Promega) was performed.

In test [5] the test system is human omental and subcutaneous preadipocytes. Put plainly: Differentiation of human preadipocytes in serum-containing medium (cytoplasmic lipid accumulation). The settings on record: subcultured in SCM+FGF-1, differentiated in SCM plus insulin and (days 1-3) dexamethasone and rosiglitazone; vs SCM alone. From the text:
A standard requirement of human preadipocyte differentiation in vitro is the obligatory withdrawal of serum. This contrasts with the murine adipocyte cell lines (e.g., 3T3-L1) that have high differentiation potential in SCM. It is assumed that the culture system developed for the human cells either induces down-regulation of factors necessary for differentiation, or promotes the expression of anti-differentiative factors (or both). In these experiments human omental and subcutaneous preadipocytes were isolated and subcultured in the presence of FGF-1. Cells were then differentiated in SCM plus insulin and (days 1-3) dexamethasone and rosiglitazone.

Three molecules from patent publication US20140221455A1, “DIFFERENTIATION MODULATING AGENTS AND USES THEREFOR” (Verva Pharmaceuticals, Inc., priority 2002, published 2014) can be followed below.

“Also recorded” adds a separate entry of the source.

`COc1ccc2c(c1)CC[C@@H]1[C@@H]2CC[C@]2(C)[C@@H](NCCCCCCN3C(=O)C=CC3=O)CC[C@@H]12` [U-73122]: the “FGF-1-induced differentiation in the presence of PLC inhibitor” value in test [1] was “significantly impaired”.
Regarding “FGF-1: acidic fibroblast growth factor (aFGF), also known as FGF-1”, in the test with PLCγ2, the “PLCγ2 protein expression in human preadipocytes” value is reported as “increased”. Besides, in test [2], the C/EBPα gene expression result is on record as “upregulation”, the FGFR-1 gene expression entry is listed as “Up-regulation”, the FGFR-2 gene expression result is “Up-regulation” and the FGFR-3 gene expression result is “down-regulation”. Moreover, in test [2], the PLCγ2 gene expression entry is given as “Increased expression” and the PPARγ gene expression result is “upregulation”. Further, the “differentiation potential of preadipocytes grown with purified FGF-1” value in test [3] (FGF-1 present from the time of isolation, compared with absence of FGF-1 or other MVEC-derived factors, data not shown) was “similar, but not additive, increase in differentiation potential”. Also, in test [3], the “adipogenic effect of FGF present during replication and/or differentiation (combination treatments)” value was “adipogenic if present either during replication or during differentiation; also recorded: greater adipogenic effect than FGF-2”, the “preadipocyte differentiation / adipogenic effect (summary statements)” value is “significant positive effect on the differentiation; also recorded: dramatically increases potential for subsequent differentiation” and the “differentiation of human preadipocytes after exposure to growth factor or MVEC-conditioned medium during subculture” value was “more pronounced effect than FGF-2; also recorded: marked increase in differentiation”. Moreover, the “proliferation of human preadipocytes in response to growth factor” value in test [4] is given as “marked increase in proliferation”. Besides, the “preadipocyte growth and replication (summary statements)” value in test [4] (human preadipocytes cultured with the growth factor) was “markedly promoted their growth and replication; also recorded: promotes human preadipocyte replication”. For the same molecule, in test [5], the “differentiation in the presence of serum (cytoplasmic lipid accumulation)” value is “significant differentiation”.
In the case of FGF-2: basic FGF (also known as FGF-2), in test [3], the “adipogenic effect of FGF present during replication and/or differentiation (combination treatments)” value was “adipogenic if present either during replication or during differentiation”, the “preadipocyte differentiation / adipogenic effect (summary statements)” value is listed as “pro-adipogenic effect” and the “differentiation of human preadipocytes after exposure to growth factor or MVEC-conditioned medium during subculture” value is “greater that the effect seen with IGF-1; also recorded: marked increase in differentiation”. The “proliferation of human preadipocytes in response to growth factor” value in test [4] is listed as “marked increase in proliferation”.
